Patent publication US20190224186A1, “TREATMENT OF MULTIPLE SCLEROSIS WITH CHS-131” (InteKrin Therapeutics, Inc., priority 2016, published 2019)
Values joined by “and” are separate entries in the source; they are usually repeats but may differ in a detail not shown here. Identical values can stand only once.

How the values were obtained:
Type in all cases: in vivo, human
[1] = system: MS patients in the relapsing and remitting course of the disease (RRMS); assay: Phase 2 trial: number of new gadolinium contrast-enhancing (CE) T1-weighted lesions on monthly MRI over 6 months; conditions: for LSMean cumulative number of new CE lesions over 6 months / mean cumulative number of new CE lesions over 6 months: n=70
Description: A Phase 2, randomized, double-blind, placebo-controlled, multi-center clinical trial of CHS-131 for the treatment of multiple sclerosis (MS) was conducted. The primary endpoint was the number of new gadolinium contrast-enhancing (CE) T1-weighted lesions on monthly MRI over 6 months.
The study enrolled MS patients in the relapsing and remitting course of the disease (RRMS) who had been diagnosed within ≤3 years of enrollment. Patients had to be treatment-naïve, have ≥1 gadolinium-positive lesion within 12 months of enrollment, and have an Expanded Disability Status Score (EDSS) of 0-6 at screening.
Part 1 was a double-blind, parallel-group, 6-month study. Patients were randomized to oral CHS-131 at 3 mg or 1 mg or placebo in a 1:1:1 ratio at 21 sites in Russia. Monthly MRIs were read in a blinded fashion at the Buffalo Neuroimaging and Analysis Center, Buffalo, N.Y., USA. Part 2 is an open label, 6-month, safety extension study, in which all subjects transition to 1 mg CHS-131 daily, to evaluate clinical response, CE lesions on MM, and safety.
The mean cumulative number of new CE lesions over 6 months was 4.2 (LSMean 3.10) for 3 mg CHS131 (n=70), 7.6 (LSMean 5.15) for 1 mg CHS131 (n=70), and 7.8 (LSMean 6.49) for placebo (n=69). The response was dose-dependent. […] FIG. 2 provides a graphical representation of these LSMean data.
Upon completion of the six month trial period described in Example 1, the number of new gadolinium CE T1-weighted lesions was evaluated in the entire study population and separately in men and women.
The ratios of changes in lesions were evaluated by a least square means (LSMeans) analysis. In such an analysis, multiple factors including both categorical (e.g. treatment, center, gender) and continuous covariates (e.g. baseline measures) can be accounted for.

[2] = system: MS patients in the relapsing and remitting course of the disease (RRMS); assay: Phase 2 trial: whole brain volume by serial MRIs
Description: Whole brain volume was evaluated at baseline and six months in this study. Neural atrophy was measured by serial determination of brain volume using serial MRIs.

[3] = system: MS patients in the relapsing and remitting course of the disease (RRMS); assay: Phase 2 trial: Expanded Disability Status Scale (EDSS) score
Source text: Several methods are used to diagnose and determine the impact of multiple sclerosis on patients. The McDonald criteria are used to diagnose multiple sclerosis on clinical grounds and MRI lesions consistent with MS. The Expanded Disability Status Scale (EDSS) quantifies disability in eight Functional Systems (FS) and allows neurologists to assign a Functional System Score (FSS) in each of these. The Multiple Sclerosis Functional Composite (MSFC) is a three-part, standardized, quantitative, assessment of function. The three components of the MSFC measure leg function/ambulation, arm/hand function, and cognitive function. The EDSS and MSFC scores are useful to determine if a drug improves or prevents loss of cognitive or physical function of a patient with MS. A drug is said to reduce MS-related dysfunction if it reduces a patient's EDSS or MSFC score. The study enrolled MS patients in the relapsing and remitting course of the disease (RRMS) who had been diagnosed within ≤3 years of enrollment. Patients had to be treatment-naïve, have ≥1 gadolinium-positive lesion within 12 months of enrollment, and have an Expanded Disability Status Score (EDSS) of 0-6 at screening. Part 1 was a double-blind, parallel-group, 6-month study. Patients were randomized to oral CHS-131 at 3 mg or 1 mg or placebo in a 1:1:1 ratio at 21 sites in Russia. Monthly MRIs were read in a blinded fashion at the Buffalo Neuroimaging and Analysis Center, Buffalo, N.Y., USA. Part 2 is an open label, 6-month, safety extension study, in which all subjects transition to 1 mg CHS-131 daily, to evaluate clinical response, CE lesions on MM, and safety. The EDSS scores are reported for the full analysis population in the table below.

[4] = system: MS patients in the relapsing and remitting course of the disease (RRMS); assay: Phase 2 trial: new and enlarged T2 lesions over 6 months; conditions: for mean number of new and enlarged T2 lesions over 6 months: n=76
Description: A Phase 2, randomized, double-blind, placebo-controlled, multi-center clinical trial of CHS-131 for the treatment of multiple sclerosis (MS) was conducted. The primary endpoint was the number of new gadolinium contrast-enhancing (CE) T1-weighted lesions on monthly MRI over 6 months. The study enrolled MS patients in the relapsing and remitting course of the disease (RRMS) who had been diagnosed within ≤3 years of enrollment. Patients had to be treatment-naïve, have ≥1 gadolinium-positive lesion within 12 months of enrollment, and have an Expanded Disability Status Score (EDSS) of 0-6 at screening. Part 1 was a double-blind, parallel-group, 6-month study. Patients were randomized to oral CHS-131 at 3 mg or 1 mg or placebo in a 1:1:1 ratio at 21 sites in Russia. Monthly MRIs were read in a blinded fashion at the Buffalo Neuroimaging and Analysis Center, Buffalo, N.Y., USA. Part 2 is an open label, 6-month, safety extension study, in which all subjects transition to 1 mg CHS-131 daily, to evaluate clinical response, CE lesions on MM, and safety. The mean number of new and enlarged lesions over 6 months was 3.43 for 3 mg CHS131 (n=76), 4.21 for 1 mg CHS131 (n=76), and 4.89 for placebo (n=74). The response was dose-dependent.

Structure (SMILES): O=S(=O)(Nc1cc(Cl)c(Oc2cnc3ccccc3c2)c(Cl)c1)c1ccc(Cl)cc1Cl [CHS-131]
- incidence of new CE lesions lower than with placebo ([1]; 1 mg, 6 months): 21%
- LSMean cumulative number of new CE lesions over 6 months ([1]; 1 mg): 5.15
- mean cumulative number of new CE lesions over 6 months ([1]; 1 mg): 7.6
- LSMean cumulative number of new CE lesions over 6 months ([1]; 3 mg): 3.10
- mean cumulative number of new CE lesions over 6 months ([1]; 3 mg): 4.2
- reduction of incidence of new CE lesions versus placebo ([1]; 3 mg, whole population, 6 months, p=0.003): 52% and 53%
- LSMean # of Lesions (new gadolinium CE T1-weighted, 6 months) ([1]; Female, 1 mg): 5.48
- Mean # of Lesions (new gadolinium CE T1-weighted, 6 months, observed data) ([1]; Female, 1 mg): 8.01
- Percent Change from Placebo (observed mean # of lesions) ([1]; Female, 1 mg): 3.2%
- Percent Change from Placebo (inverse of ratio of LSMeans treatment:placebo) ([1]; Female, 1 mg, p 0.8481): −5% (0.8481)
- LSMean # of Lesions (new gadolinium CE T1-weighted, 6 months) ([1]; Female, 3 mg): 4.18
- Mean # of Lesions (new gadolinium CE T1-weighted, 6 months, observed data) ([1]; Female, 3 mg): 4.97
- Percent Change from Placebo (observed mean # of lesions) ([1]; Female, 3 mg): −36.0%
- Percent Change from Placebo (inverse of ratio of LSMeans treatment:placebo) ([1]; Female, 3 mg, p 0.2516): −28% (0.2516)
- LSMean # of Lesions (new gadolinium CE T1-weighted, 6 months) ([1]; Male & Female, 1 mg): 5.15
- Mean # of Lesions (new gadolinium CE T1-weighted, 6 months, observed data) ([1]; Male & Female, 1 mg): 7.19
- Percent Change from Placebo (observed mean # of lesions) ([1]; Male & Female, 1 mg): −9.6%
- Percent Change from Placebo (inverse of ratio of LSMeans treatment:placebo) ([1]; Male & Female, 1 mg, p 0.3049): −21% (0.3049)
- LSMean # of Lesions (new gadolinium CE T1-weighted, 6 months) ([1]; Male & Female, 3 mg): 3.10
- Mean # of Lesions (new gadolinium CE T1-weighted, 6 months, observed data) ([1]; Male & Female, 3 mg): 4.51
- Percent Change from Placebo (observed mean # of lesions) ([1]; Male & Female, 3 mg): −43.3%
- Percent Change from Placebo (inverse of ratio of LSMeans treatment:placebo) ([1]; Male & Female, 3 mg, p 0.0016): −52% (0.0016)
- LSMean # of Lesions (new gadolinium CE T1-weighted, 6 months) ([1]; Male, 1 mg): 4.31
- Mean # of Lesions (new gadolinium CE T1-weighted, 6 months, observed data) ([1]; Male, 1 mg): 5.93
- Percent Change from Placebo (observed mean # of lesions) ([1]; Male, 1 mg): −30.4%
- Percent Change from Placebo (inverse of ratio of LSMeans treatment:placebo) ([1]; Male, 1 mg, p 0.0827): −48% (0.0827)
- LSMean # of Lesions (new gadolinium CE T1-weighted, 6 months) ([1]; Male, 3 mg): 2.42
- Mean # of Lesions (new gadolinium CE T1-weighted, 6 months, observed data) ([1]; Male, 3 mg): 3.81
- Percent Change from Placebo (observed mean # of lesions) ([1]; Male, 3 mg): −55.4%
- Percent Change from Placebo (inverse of ratio of LSMeans treatment:placebo) ([1]; Male, 3 mg, p 0.0012): −71% (0.0012)
- reduction of new T1 lesions in the study analysis ([1]; men, 3 mg per day): 71%
- less neural volume loss compared to placebo ([2]; 1 mg daily, 6 months): 13%
- brain volume lost over 6 months ([2]; 1 mg/day): 0.14%
- less parenchymal atrophy than the placebo treated cohort ([2]; 3 mg daily, 6 months): 50%
- neural parenchyma volume lost over 6 months ([2]; 3 mg/day): 0.08%
- Month 3 EDSS % change from baseline ([3]; 1 mg): −0.49%
- Month 6 EDSS % change from baseline ([3]; 1 mg): −2.94%
- Month 3 EDSS Mean (SD) ([3]; 1 mg, n=74): 2.03 (0.961)
- Month 6 EDSS Mean (SD) ([3]; 1 mg, n=74): 1.98 (0.974)
- Month 3 EDSS % change from baseline ([3]; 3 mg): −0.46%
- Month 6 EDSS % change from baseline ([3]; 3 mg): −4.59%
- Month 6 EDSS Mean (SD) ([3]; 3 mg, n=73): 2.08 (0.846)
- Month 3 EDSS Mean (SD) ([3]; 3 mg, n=74): 2.17 (0.945)
- reduction in T2 lesions compared to placebo (LSMeans analysis) ([4]; 1 mg): 14%
- mean number of new and enlarged T2 lesions over 6 months ([4]; 1 mg): 4.21
- mean number of new and enlarged T2 lesions over 6 months ([4]; 3 mg): 3.43
- reduction in T2 lesions compared to placebo (LSMeans analysis) ([4]; 3 mg, p=0.0767): 30%
